Reference: patent US7268136B2, “Compositions useful as inhibitors of protein kinases” (Vertex Pharmaceuticals Incorporated, priority 2002, dated 2007)

How the values were obtained:
Format in all cases: biochemical
[1] = molecular target: PIM-1 (Homo sapiens, UniProt P11309); assay: Inhibition of PIM-1, standard coupled enzyme assay
Method: Reactions were carried out in 100 mM HEPES pH 7.5, 10 mM MgCl2, 25 mM NaCl, 1 mM DTT, 20 μg/ml BSA and 1.5% DMSO. […] Assays were carried out at 30° C. and 50 nM PIM-1.
An assay stock buffer solution was prepared containing all of the reagents listed above, with the exception of PIM-1, DTT, BSA and the test compound of interest. 56 μl of the test reaction was placed in a 384 well plate followed by addition of 1 μl of 2 mM DMSO stock containing the test compound (final compound concentration 30 μM). The plate was preincubated for ˜10 minutes at 30° C. and the reaction initiated by addition of 10 μl of enzyme in DTT and BSA (final concentrations: 50 nM PIM-1, 1 mM DTT, and 20 μg/ml BSA). Rates of reaction were obtained using a BioRad Ultramark plate reader (Hercules, Calif.) over a 5 minute read time at 30° C.

[2] = molecular target: T1, GSK-3β (AA 1-420) (Homo sapiens, UniProt P49841); assay: Inhibition of GSK-3, standard coupled enzyme system; details: 20 μM ATP, 300 μM peptide, 20 nM GSK-3β, 30° C.
T1 construct: GSK-3β (AA 1-420)
T1 sequence (P49841 whole entry, the tested form may be a part): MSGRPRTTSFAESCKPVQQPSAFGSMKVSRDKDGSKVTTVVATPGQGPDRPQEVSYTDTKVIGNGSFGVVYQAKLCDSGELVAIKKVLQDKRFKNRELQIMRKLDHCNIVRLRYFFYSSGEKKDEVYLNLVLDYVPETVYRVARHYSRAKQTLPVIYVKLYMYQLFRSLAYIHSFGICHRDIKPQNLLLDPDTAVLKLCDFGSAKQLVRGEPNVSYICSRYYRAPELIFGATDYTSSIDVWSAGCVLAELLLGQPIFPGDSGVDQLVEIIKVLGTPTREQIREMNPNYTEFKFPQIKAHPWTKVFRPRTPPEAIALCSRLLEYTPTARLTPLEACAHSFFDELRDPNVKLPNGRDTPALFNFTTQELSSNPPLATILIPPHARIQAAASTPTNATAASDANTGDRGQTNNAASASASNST
Method: Compounds were screened for their ability to inhibit GSK-3β (AA 1-420) activity using a standard coupled enzyme system (Fox et al. (1998) Protein Sci. 7, 2249). Reactions were carried out in a solution containing 100 mM HEPES (pH 7.5), 10 mM MgCl2, 25 mM NaCl, 300 μM NADH, 1 mM DTT and 1.5% DMSO. Final substrate concentrations in the assay were 20 μM ATP (Sigma Chemicals, St Louis, Mo.) and 300 μM peptide (American Peptide, Sunnyvale, Calif.). Reactions were carried out at 30° C. and 20 nM GSK-3β. Final concentrations of the components of the coupled enzyme system were 2.5 mM phosphoenolpyruvate, 300 μM NADH, 30 μg/ml pyruvate kinase and 10 μg/ml lactate dehydrogenase. An assay stock buffer solution was prepared containing all of the reagents listed above with the exception of ATP and the test compound of interest. The assay stock buffer solution (175 μl) was incubated in a 96 well plate with 5 μl of the test compound of interest at final concentrations spanning 0.002 μM to 30 μM at 30° C. for 10 min. Typically, a 12 point titration was conducted by preparing serial dilutions (from 10 mM compound stocks) with DMSO of the test compounds in daughter plates. The reaction was initiated by the addition of 20 μl of ATP (final concentration 20 μM). Rates of reaction were obtained using a Molecular Devices Spectramax plate reader (Sunnyvale, Calif.) over 10 min at 30° C. The Ki values were determined from the rate data as a function of inhibitor concentration.

[3] = molecular target: T2, human Src kinase (Homo sapiens, UniProt P12931); assay: Inhibition of SRC, radioactivity-based assay or spectrophotometric assay; details: full length recombinant human Src kinase, poly Glu-Tyr substrate; assay A or B not specified
T2 construct: full length recombinant human Src kinase (from Upstate Biotechnology, cat. no. 14-117); purchased Upstate Biotechnology 14-117; host or cells: baculo viral cells (baculovirus expression)
T2 sequence (P12931 whole entry): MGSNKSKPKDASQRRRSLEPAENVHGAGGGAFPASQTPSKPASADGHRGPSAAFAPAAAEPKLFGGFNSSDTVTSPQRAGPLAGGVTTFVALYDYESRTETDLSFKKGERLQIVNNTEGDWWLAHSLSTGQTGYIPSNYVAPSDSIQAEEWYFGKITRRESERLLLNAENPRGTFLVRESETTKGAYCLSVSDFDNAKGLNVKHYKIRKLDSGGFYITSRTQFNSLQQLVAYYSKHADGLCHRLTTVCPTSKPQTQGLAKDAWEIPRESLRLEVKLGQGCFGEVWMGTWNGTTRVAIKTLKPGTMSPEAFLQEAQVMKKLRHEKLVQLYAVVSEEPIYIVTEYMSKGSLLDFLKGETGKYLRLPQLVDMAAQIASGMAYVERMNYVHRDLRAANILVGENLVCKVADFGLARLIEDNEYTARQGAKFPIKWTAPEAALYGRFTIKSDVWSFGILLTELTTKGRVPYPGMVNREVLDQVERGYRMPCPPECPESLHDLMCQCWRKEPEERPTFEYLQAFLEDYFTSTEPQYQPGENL
Method: The compounds are evaluated as inhibitors of human Src kinase using either a radioactivity-based assay or spectrophotometric assay.
Src Inhibition Assay A: Radioactivity-based Assay
The compounds are assayed as inhibitors of full length recombinant human Src kinase (from Upstate Biotechnology, cat. no. 14-117) expressed and purified from baculo viral cells. Src kinase activity is monitored by following the incorporation of ^33P from ATP into the tyrosine of a random poly Glu-Tyr polymer substrate of composition, Glu:Tyr=4:1 (Sigma, cat. no. P-0275). The following are the final concentrations of the assay components: 0.05 M HEPES, pH 7.6, 10 mM MgCl2, 2 mM DTT, 0.25 mg/ml BSA, 10 μM ATP (1-2 μCi ^33P-ATP per reaction), 5 mg/ml poly Glu-Tyr, and 1-2 units of recombinant human Src kinase. In a typical assay, all the reaction components with the exception of ATP are pre-mixed and aliquoted into assay plate wells. Inhibitors dissolved in DMSO are added to the wells to give a final DMSO concentration of 2.5%. The assay plate is incubated at 30° C. for 10 min before initiating the reaction with ^33P-ATP. After 20 min of reaction, the reactions are quenched with 150 μl of 10% trichloroacetic acid (TCA) containing 20 mM Na3PO4. The quenched samples are then transferred to a 96-well filter plate (Whatman, UNI-Filter GF/F Glass Fiber Filter, cat no. 7700-3310) installed on a filter plate vacuum manifold. Filter plates are washed four times with 10% TCA containing 20 mM Na3PO4 and then 4 times with methanol. 200 μl of scintillation fluid is then added to each well. The plates were sealed and the amount of radioactivity associated with the filters is quantified on a TopCount scintillation counter. The radioactivity incorporated is plotted as a function of the inhibitor concentration. The data is fitted to a competitive inhibition kinetics model to get the Ki for the compound.
Src Inhibition Assay B: Spectrophotometric Assay
The ADP produced from ATP by the human recombinant Src kinase-catalyzed phosphorylation of poly Glu-Tyr substrate is quantified using a coupled enzyme assay (Fox et al (1998) Protein Sci 7, 2249). In this assay one molecule of NADH is oxidised to NAD for every molecule of ADP produced in the kinase reaction. The disappearance of NADH is conveniently followed at 340 nm.
The following are the final concentrations of the assay components: 0.025 M HEPES, pH 7.6, 10 mM MgCl2, 2 mM DTT, 0.25 mg/ml poly Glu-Tyr, and 25 nM of recombinant human Src kinase. […]
In a typical assay, all the reaction components with the exception of ATP are pre-mixed and aliquoted into assay plate wells. […] The absorbance change at 340 nm with time, the rate of the reaction, is monitored on a molecular devices plate reader. […]

[4] = molecular target: CDK-2/Cyclin A (Homo sapiens, UniProt P24941); assay: Inhibition of CDK-2, standard coupled enzyme assay; details: 100 μM ATP, 100 μM peptide, 25 nM CDK-2/Cyclin A, 30° C.
Method: Compounds were screened for their ability to inhibit CDK-2/Cyclin A using a standard coupled enzyme assay (Fox et al (1998) Protein Sci 7, 2249). Reactions were carried out in 100 mM HEPES pH 7.5, 10 mM MgCl2, 25 mM NaCl, 1 mM DTT and 1.5% DMSO. Final substrate concentrations in the assay were 100 μM ATP (Sigma chemicals) and 100 μM peptide (American Peptide, Sunnyvale, Calif.). Assays were carried out at 30° C. and 25 nM CDK-2/Cyclin A. Final concentrations of the components of the coupled enzyme system were 2.5 mM phosphoenolpyruvate, 350 μM NADH, 30 μg/ml pyruvate kinase and 10 μg/ml lactate dehydrogenase.
An assay stock buffer solution was prepared containing all of the reagents listed above, with the exception of CDK-2/Cyclin A, DTT and the test compound of interest. 56 μl of the test reaction was placed in a 384 well plate followed by addition of 1 μl of 2 mM DMSO stock containing the test compound (final compound concentration 30 μM). The plate was preincubated for ˜10 minutes at 30° C. and the reaction initiated by addition of 10 μl of enzyme (final concentration 25 nM). Rates of reaction were obtained using a BioRad Ultramark plate reader (Hercules, Calif.) over a 5 minute read time at 30° C. Ki values were determined according to standard methods.

Sequence of PIM-1 (P11309 whole entry): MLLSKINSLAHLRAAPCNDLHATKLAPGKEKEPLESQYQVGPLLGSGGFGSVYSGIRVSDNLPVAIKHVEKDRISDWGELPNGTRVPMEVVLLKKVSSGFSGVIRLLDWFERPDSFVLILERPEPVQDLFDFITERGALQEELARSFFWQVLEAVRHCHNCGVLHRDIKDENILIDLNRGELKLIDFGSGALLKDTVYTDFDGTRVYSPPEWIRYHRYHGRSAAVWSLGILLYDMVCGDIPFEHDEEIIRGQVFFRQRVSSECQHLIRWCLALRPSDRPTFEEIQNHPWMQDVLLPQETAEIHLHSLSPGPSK

| SMILES | IC50 [1] | Ki [2] | further results |
| --- | --- | --- | --- |
| FC(F)(F)c1cccc(-c2nnc3ccc(NC4CC4)nn23)c1 [Compound I-18] | < 1000 nM | < 2000 nM |  |
| Fc1cccc(-c2nnc3ccc(NC4CC4)nn23)c1 [Compound I-20] | < 1000 nM |  |  |
| Fc1ccc(-c2nnc3ccc(NC4CC4)nn23)cc1 [Compound I-21] | < 1000 nM | < 2000 nM |  |
| COc1ccc(-c2nnc3ccc(NC4CC4)nn23)cc1 [Compound I-24] | < 1000 nM |  |  |
| FC(F)(F)c1cccc(-c2nnc3ccc(NC4CCC4)nn23)c1 [Compound I-25] | < 1000 nM |  | Ki [3]: < 5 µM |
| FC(F)(F)c1cccc(-c2nnc3ccc(NC4CCCCC4)nn23)c1 [Compound I-26] |  |  | Ki [3]: < 5 µM |
| COc1cccc(-c2nnc3ccc(NC4CC4)nn23)c1 [Compound I-28] | < 1000 nM |  | Ki [3]: < 5 µM |
| COc1ccccc1-c1nnc2ccc(NC3CC3)nn12 [Compound I-29] |  |  | Ki [3]: < 5 µM |
| N#Cc1ccc(-c2nnc3ccc(NCC(N)=O)nn23)cc1 [Compound I-37] |  | < 2000 nM |  |
| COc1ccc(-c2nnc3ccc(NCC(N)=O)nn23)cc1 [Compound I-38] |  | < 2000 nM |  |
| COc1cccc(-c2nnc3ccc(NCC(N)=O)nn23)c1 [Compound I-39] |  | < 2000 nM |  |
| N#Cc1cccc(-c2nnc3ccc(NCC(N)=O)nn23)c1 [Compound I-40] |  | < 2000 nM |  |
| COc1ccccc1Nc1nnc2ccc(Sc3ccccc3)nn12 [Compound I-62] |  | < 2000 nM |  |
| COc1ccc(Nc2nnc3ccc(OC)nn23)cc1 [Compound I-66] |  | < 2000 nM |  |
| COc1ccc2nnc(Nc3ccccc3OC)n2n1 [Compound I-68] |  |  | Ki [4]: < 2000 nM |
| COc1ccc2nnc(Nc3ccc(C#N)cc3)n2n1 [Compound I-73] |  |  | Ki [4]: < 2000 nM |
| COc1ccc(Nc2nnc3ccc(OC)nn23)c(OC)c1 [Compound I-85] |  | < 2000 nM |  |
| COc1ccc2nnc(Nc3cc(OC)c(OC)c(OC)c3)n2n1 [Compound I-86] |  | < 2000 nM |  |
